Source: patent US10604508B2, “2,3-dihydro-isoindole-1-one derivative as BTK kinase suppressant, and pharmaceutical composition including same” (CrystalGenomics, Inc., priority 2012, dated 2020)

Assays:
Type in all cases: cell-based
SR = experiment: MTS anti-proliferation assay, SR; details: human lymphoma cell line, 48 hours
Experimental: (§1) MTS assay was performed to evaluate the anti-proliferative activities of the inventive compounds via inhibition on extracellular signal-regulated kinase (Barltrop, J. A. et al., (1991) 5-(3-carboxymethoxyphenyl)-2-(4,5-dimethylthiazoly)-3-(4-sulfophenyl) tetrazolium, inner salt (MTS) and related analog of 3-(4,5-dimethylthiazolyl)-2,5,-diphenyltetrazolium bromide (MTT) reducing to purple water soluble formazans as cell-viability indicators. Bioorg. Med Chem. Lett. 1, 611-4; Cory, A. H. et al., (1991) Use of an aqueous soluble tertrazolium/formazan assay for cell growth assays in culture. Cancer Comm. 3, 207-12).
(§2) Human lymphoma cell lines Jeko-1 (ATCC), Mino (ATCC), H9 (Korean Cell Line Bank) and SR (ATCC), and human leukemia cell lines MV4-11 (ATCC), Molm-13 (DSMZ) and Ku812 (ATCC) were used for the test according to the procedure shown below.
(§3) Each of Jeko-1, Mino, H9, SR, MV4-11, Molm-13 and Ku812 cells were transferred into 96-well plates containing RPMI1640 medium (GIBCO, Invitrogen) supplemented with 10% FBS at a density of 10,000 cells/well, and then incubated for 24 hours under conditions of 37° C. and 5% CO2. The wells were treated with each of 0.2, 1, 5, 25 and 100 μM, of the test compounds. The well was treated with DMSO in an amount of 0.08 wt %, which is the same amount as in the test compounds, which was used as a control. The resulting cells were incubated for 48 hours.
(§4) MTS assays are commercially available and include the Promega CellTiter 96® Aqueous Non-Radioactive Cell Proliferation Assay. MTS assays were performed in order to evaluate cell viability of the test compounds. 20 μL of a mixed solution of 3-(4,5-dimethylthiazol-2-yl)-5-(3-carboxymethoxyphenyl)-2-(4-sulfophenyl)-2H-tetrazolium, inner salt (“MTS”) and phenazine methosulfate (PMS) was added to each well, and then incubated for 2 hours at 37° C. Then absorbance of the samples was read at 490 nm. The anti-proliferation activity level was calculated based on absorbance of the test compounds against that of the untreated control group. The EC50 (μM) values, in which test compounds reduce the growth of cancer cells by 50% were calculated.

H9 = experiment: MTS anti-proliferation assay, H9; details: human lymphoma cell line, 48 hours
Experimental: as §1, §2, §3, §4

Jeko-1 = experiment: MTS anti-proliferation assay, Jeko-1; details: human lymphoma cell line, 48 hours
Experimental: as §1, §2, §3, §4

RBL-2H3 cell line = experiment: Histamine Release Assay; details: Rattus norvegicus; RBL-2H3 cells, 500 ng/mL monoclonal anti-DNP, 24 hours
Experimental: Histamine release assays were performed with reference to the method disclosed in the article, FEBS Lett. 2002 Sep. 11; 527 (1-3):274-8. Silencing of Bruton's tyrosine kinase (Btk) using short interfering RNA duplexes (siRNA). Heinonen J E, Smith C I, Nore B F, and the amount of histamine was measured by an enzyme immunoassay.
The RBL-2H3 cell line, purchased from KCLB (Korean Cell Line Bank), was grown in a DMEM medium supplemented with 10% (v/v) FBS at 37° C. in a 5% CO2 incubator for 72 hours. The cells were transferred into 96-well plates at a density of 10,000 cells/well, and cultured at 37° C. in the 5% CO2 incubator for 24 hours.
The cells were treated with 500 ng/mL of monoclonal anti-DNP (sigma) and each of 0.001, 0.01, 0.1, 1.0 and 10 μM of the test compound in 100% (v/v) dimethyl sulfoxide (DMSO). The cells were treated only with 100% (v/v) DMSO, which was used as a control. The treated samples were cultured at 37° C. in the 5% CO2 incubator for 24 hours. Then, histamine release was measured according to manufacturer's instructions (EIA histamine kit, immunotech). Each well was treated with 50 μL of a histamine release buffer, and allowed to react for 30 minutes at 37° C. Upon completion of the reaction, 100 μL of a sample from each well was transferred to a new plate, and then was thoroughly mixed with 25 μL of an acetylation buffer and 25 μL of an acetylation reagent. 50 μL of the acetylation sample thus prepared was transferred to a plate coated with an antibody, mixed with 200 μL of histamine alkaline phosphatase conjugate, and then allowed to react for 18 hours at 4° C. Once the reaction is completed, the sample from the plate is removed, and then 200 μL of a wash buffer was added to wash three times. 200 μL of a substrate was added thereto, and the mixture was allowed to react at room temperature for 30 minutes. The reaction was terminated by adding 50 μL of a stop solution, and absorbance of the samples was read at 406 nm using Benchmark Plus (Biorad). The histamine release level was calculated based on absorbance of the test group against that of the control group. The EC50 (μM) values, in which test compounds reduce the histamine release by 50%, were determined by using Microsoft Excel graphic program.

Mino = experiment: MTS anti-proliferation assay, Mino; details: human lymphoma cell line, 48 hours
Experimental: as §1
(§5) Human lymphoma cell lines Jeko-1 (ATCC), Mino (ATCC), H9 (Korean Cell Line Bank) and SR (ATCC), and human leukemia cell lines MV4-11 (ATCC), Molm-13 (DSMZ) and Ku812 (ATCC) were used for the test according to the procedure shown below. […]
(§6) MTS assays are commercially available and include the Promega CellTiter 96® Aqueous Non-Radioactive Cell Proliferation Assay. […] Then absorbance of the samples was read at 490 nm. The anti-proliferation activity level was calculated based on absorbance of the test compounds against that of the untreated control group. […]

Ku812 = experiment: MTS anti-proliferation assay, Ku812; details: human leukemia cell line, 48 hours
Experimental: as §1, §5, §6

Molm-13 = experiment: MTS anti-proliferation assay, Molm-13; details: human leukemia cell line, 48 hours
Experimental: as §1, §5, §6

MV4-11 = experiment: MTS anti-proliferation assay, MV4-11; details: human leukemia cell line, 48 hours
Experimental: as §1, §5, §6

SMILES	EC50 (SR) [nM]	EC50 (H9) [nM]	EC50 (Jeko-1) [nM]	EC50 (RBL-2H3 cell line) [nM]	EC50 (Mino) [nM]	EC50 (Ku812) [nM]	EC50 (Molm-13) [nM]	EC50 (MV4-11) [nM]
Cc1cnc(-c2ccc(-c3ccc(NC(=O)Nc4c(F)cccc4F)cc3F)c3c2C(=O)NC3)[nH]1 [Compound 3, 1-(2,6-difluoro-phenyl)-3-{3-fluoro-4-[7-(5-methyl-1H-imidazol-2-yl)-1-oxo-2,3-dihydro-1H-isoindol-4-yl]-phenyl}-urea]	100	30	100	450				
Cc1cnc(-c2ccc(-c3ccc(NC(=O)Nc4c(F)c(F)c(F)c(F)c4F)cc3F)c3c2C(=O)NC3)[nH]1 [Compound 9, 1-{3-fluoro-4-[7-(5-methyl-1H-imidazol-2-yl)-1-oxo-2,3-dihydro-1H-isoindol-4-yl]-phenyl}-3-pentafluorophenyl-urea]	18	6	30	350				
Cc1cnc(-c2ccc(-c3ccc(NC(=O)Nc4c(F)cc(F)cc4F)cc3F)c3c2C(=O)NC3)[nH]1 [Compound 7, 1-{3-fluoro-4-[7-(5-methyl-1H-imidazol-2-yl)-1-oxo-2,3-dihydro-1H-isoindol-4-yl]-phenyl}-3-(2,4,6-trifluoro-phenyl)-urea]	15	7	30	220	18	600	3	2
Cc1cnc(-c2ccc(-c3ccc(NC(=O)Nc4ccc(C#N)c(F)c4)cc3F)c3c2C(=O)NC3)[nH]1 [Compound 15, 1-(4-cyano-3-fluorophenyl)-3-(3-fluoro-4-(7-(5-methyl-1H-imidazol-2-yl)-1-oxoisoindolin-4-yl)phenyl)urea]	150	190	100	220				
Cc1cnc(-c2ccc(-c3ccc(NC(=O)Nc4ccc(F)c(F)c4)cc3F)c3c2C(=O)NC3)[nH]1 [Compound 14, 1-(3,4-difluoro-phenyl)-3-{3-fluoro-4-[7-(5-methyl-1H-imidazol-2-yl)-1-oxo-2,3-dihydro-1H-isoindol-4-yl]-phenyl}-urea]	18	20	30	200				
Cc1cnc(-c2ccc(-c3ccc(NC(=O)Nc4c(F)ccc(F)c4F)cc3F)c3c2C(=O)NC3)[nH]1 [Compound 12, 1-{3-fluoro-4-[7-(5-methyl-1H-imidazol-2-yl)-1-oxo-2,3-dihydro-1H-isoindol-4-yl]-phenyl}-3-(2,3,6-trifluoro-phenyl)-urea]	20	40	150	300				
Cc1cnc(-c2ccc(-c3ccc(NC(=O)Nc4c(F)cccc4Cl)cc3F)c3c2C(=O)NC3)[nH]1 [Compound 4, 1-(2-chloro-6-fluoro-phenyl)-3-{3-fluoro-4-[7-(5-methyl-1H-imidazol-2-yl)-1-oxo-2,3-dihydro-1H-isoindol-4-yl]-phenyl}-urea]	30	30	100	250				
Cc1cnc(-c2ccc(-c3ccc(NC(=O)Nc4c(F)ccc(F)c4Cl)cc3F)c3c2C(=O)NC3)[nH]1 [Compound 18, 1-(2-chloro-3,6-difluorophenyl)-3-(3-fluoro-4-(7-(5-methyl-1H-imidazol-2-yl)-1-oxoisoindolin-4-yl)phenyl)urea]	20	20	30	300				
Cc1cnc(-c2ccc(-c3ccc(NC(=O)Nc4c(F)c(F)cc(F)c4F)cc3F)c3c2C(=O)NC3)[nH]1 [Compound 20, 1-{3-fluoro-4-[7-(5-methyl-1H-imidazol-2-yl)-1-oxo-2,3-dihydro-1H-isoindol-4-yl]-phenyl}-3-(2,3,5,6-tetrafluoro-phenyl)-urea]	17	10	30	300				
Cc1cnc(-c2ccc(-c3ccc(NC(=O)Nc4c(F)cc(Cl)cc4F)cc3F)c3c2C(=O)NC3)[nH]1 [Compound 19, 1-(4-chloro-2,6-difluoro-phenyl)-3-{3-fluoro-4-[7-(5-methyl-1H-imidazol-2-yl)-1-oxo-2,3-dihydro-1H-isoindol-4-yl]-phenyl}-urea]	20	40	30	300				
Cc1cnc(-c2ccc(-c3ccc(NC(=O)Nc4c(F)ccc(Cl)c4F)cc3F)c3c2C(=O)NC3)[nH]1 [Compound 17, 1-(3-chloro-2,6-difluorophenyl)-3-(3-fluoro-4-(7-(5-methyl-1H-imidazol-2-yl)-1-oxoisoindolin-4-yl)phenyl)urea]	25	20	30	40	18	190	12	4
